≈ marks a conversion by molar mass, not a printed value. Like-named read-outs stand apart in the source and are kept apart here.

The subject of data set [1] is S. aureus Smith. Briefly: In vitro antibacterial activity (MIC), S. aureus Smith. The conditions noted are these: Staphylococcus aureus, 18 h.
The test system of data set [2] is P. vulgaris 6896. Briefly: In vitro antibacterial activity (MIC), P. vulgaris 6896. To be noted: Proteus vulgaris, 6896, 18 h.
The subject of data set [3] is E. coli 9637. Briefly: In vitro antibacterial activity (MIC), E. coli 9637. To be noted: Escherichia coli, 9637, 18 h.
In data set [4] the test system is Plasmodium berghei KBG 173. As to the kind of experiment: Antimalarial blood schizonticidal test in mice. It counts as in vivo, Plasmodium berghei (infected ICR/HA Swiss mice). On the set-up: ΔMST (increase in mean survival time): unit: days. The conditions noted are these: s.c.; for ED100 / minimal effective dose: Plasmodium berghei, sc, single dose; for ED100: read-out: Lowest Dose Curing All Mice; for minimal effective dose: read-out: Min. Curing Dose; for Cure/Treat at Min. Curing Dose: at the Min. Curing Dose. From the text:
(§1) In addition, the invention provides compounds which have antimalarial activity in vivo as evidenced by a standard blood schizonticidal test in mice infected with Plasmodium berghei KBG 173.
(§2) Utilizing young ICR/HA Swiss mice and a standard inoculum of Plasmodium berghei KBG 173, it is possible to produce a uniform disease fatal to 100% of untreated animals within 6 to 8 days with a mean survival time of 6.2 days. Test animals weigh from 18 to 22 grams but weight variations in any given experimental or control group are confined to 2-3 grams. All animals in any given test are approximately of the same age. Animals on test are housed in metal-topped plastic cages, given a standard laboratory diet and water ad libitum.
(§3) Test animals receive an intraperitoneal injection of 0.5 ml. of 1:100 dilution of heparinized heart's blood with a minimum of 90% parasitized cells (4 × 10^7 cells), drawn from donor mice infected one week earlier with Plasmodium berghei. The donor strain is maintained by weekly passages in separate groups of mice inoculated with a 0.5 ml. of 1:500 dilution of heparinized heart's blood.
(§4) Test compounds are administered after dissolution or suspension in peanut oil. A single dose is given subcutaneously 72 hours after the mice are infected with Plasmodium berghei. At this time a 10-15 percent parasitemia has developed; the disease is well established but has not produced sufficient debility to alter the response of the host to toxic effects of the drug on test. Since treatment is withheld for three days to permit the infection to become well established and death occurs in untreated controls within 6-8 days, it is felt that this system presents a candidate compound with the maximum challenge. In order to check factors such as changes in the infectivity of Plasmodium berghei or in the susceptibility of the host or to detect technical errors, a group of infected animals treated with pyrimethamine at dose levels producing definite increases in survival time is included in a positive control in every experiment.
(§5) In each experiment test compounds are administered in graded dosages. […] However, if an active drug is toxic for the host, its toxicity may become a limiting factor; continued increases in dose levels also increase the toxic effects and may result in the diminution of survival times. Deaths prior to the sixth day, when untreated controls begin to die, are regarded as nonparasitic and become the basis for toxicity evaluations. […] In calculating mean survival time, toxic deaths and 60-day survivors are not included.
(§6) Compounds are considered active which produce a cure in at least one test animal or which produce significant increases in mean survival times of the treated animals as compared with the mean survival times of untreated controls, provided that no drug related deaths (toxicity) are noted at the active dose.

Data set [5] is described as follows: Antimalarial blood schizonticidal test in mice. It counts as in vivo, Plasmodium berghei (infected ICR/HA Swiss mice). The arrangement: ΔMST (increase in mean survival time): unit: days. To be noted: mouse, in vivo, sc, single dose, read-out: Highest Non-Lethal Dose.
Excerpt: as §1, §2, §3, §4, §5, §6

Data set [6] has as its system K. pneumoniae 10031. Briefly: In vitro antibacterial activity (MIC), K. pneumoniae 10031. The conditions noted are these: Klebsiella pneumoniae, 10031, 18 h.
Data set [7] has as its system N. catarrhalis 8193. As to the kind of experiment: In vitro antibacterial activity (MIC), N. catarrhalis 8193. The conditions noted are these: 18 h.
Data set [8] has as its system S. aureus 53-180. Briefly: In vitro antibacterial activity (MIC), S. aureus 53-180. The conditions noted are these: Staphylococcus aureus, 53180, 18 h.
For data set [9], the system named is S. paratyphi 11737. As to the kind of experiment: In vitro antibacterial activity (MIC), S. paratyphi 11737. To be noted: Salmonella enterica, 18 h. It counts as cell-based.
The mark [10] stands for this setting: infected mice, highest dose with no deaths for any reason.
Setting [11] is: 336 h, alive on day 14 considered cured, no 60-day data.
The mark [12] stands for this setting: alive on day 14 considered cured.
[13] abbreviates: alive on day 14 considered cured, no 60-day data.

The MIC is the least concentration at which growth counts as inhibited. `Cc1cccc(Cn2ccc3c4c(N)nc(N)nc4ccc32)c1` [Example 20]: the MIC in data set [1] worked out at 0.976 µg/mL (≈ 3.22 µM); in data set [2] it was 1.95 µg/mL (≈ 6.43 µM); in data set [3], 0.488 µg/mL (≈ 1.61 µM); in [6] it was 1.95 µg/mL (≈ 6.43 µM); in [7] it was 0.031 µg/mL (≈ 0.102 µM); in data set [8] it was 0.488 µg/mL (≈ 1.61 µM). Also, it took 1.95 µg/mL (≈ 6.43 µM) to inhibit growth in [9] (MIC). Moreover, the ED100 in data set [4] (1440 h, 60-day survivors) was found to be 20 mg/kg. Also, the minimal effective dose in [4] (1440 h, 60-day survivors) came to 5 mg/kg. The “Cure/Treat at Min. Curing Dose” value in [4] (60-day survivors) is recorded as 4/5. The “ΔMST (increase in mean survival time)” value in [4] (dose 5 mg. per kg.) is 6.9. The MTD in [5] (setting [10]) amounted to 320 mg/kg.
For `Cc1ccc(Cn2ccc3c4c(N)nc(N)nc4ccc32)c(C)c1` [Example 22], the MIC in data set [1] was 0.244 µg/mL (≈ 0.769 µM); in [2], 7.81 µg/mL (≈ 24.6 µM); in [3] it was 0.976 µg/mL (≈ 3.08 µM); in [6], 0.244 µg/mL (≈ 0.769 µM); in data set [7], 0.0152 µg/mL (≈ 0.0479 µM); in data set [8] it was 0.244 µg/mL (≈ 0.769 µM). Further, in [9], the MIC turned out to be 3.4 µg/mL (≈ 10.7 µM). In addition, the ED100 in data set [4] (setting [11]) was 5 mg/kg. The minimal effective dose in data set [4] (setting [11]) is 5 mg/kg. The “Cure/Treat at Min. Curing Dose” value in data set [4] (setting [12]) is listed as 5/5. Also, the “ΔMST (increase in mean survival time)” value in data set [4] (dose 2.5 mg. per kg., alive on day 14 considered cured, no 60-day data) came out at 7.6. Further, in data set [5] (setting [13]), the MTD turned out to be 80 mg/kg.
Consider `Cc1cc(C)c(Cn2ccc3c4c(N)nc(N)nc4ccc32)c(C)c1` [Example 27], for which the MIC is 250 µg/mL (≈ 754 µM) in data set [1]; greater than 250 µg/mL in [2]; greater than 250 µg/mL in [3]; 31.3 µg/mL (≈ 94.4 µM) in [6]; 0.244 µg/mL (≈ 0.736 µM) in data set [7]; 250 µg/mL (≈ 754 µM) in data set [8]. The MIC in data set [9] is greater than 250 µg/mL. Also, in data set [4] (1440 h, 60-day survivors), the ED100 was found to be 40 mg/kg. Also, the minimal effective dose in data set [4] (1440 h, 60-day survivors) came out at 5 mg/kg. Also, in data set [4] (60-day survivors), the “Cure/Treat at Min. Curing Dose” value was 3/5. Further, in data set [4] (dose 2.5 mg. per kg.), the “ΔMST (increase in mean survival time)” value was found to be 7.3. In addition, the MTD in data set [5] (setting [10]) worked out at 80 mg/kg.
On to `CC(C)c1ccc(Cn2ccc3c4c(N)nc(N)nc4ccc32)cc1` [Example 29], for which the MIC in data set [1] was 1.95 µg/mL (≈ 5.88 µM); in data set [2], 62.5 µg/mL (≈ 189 µM); in [3], 7.81 µg/mL (≈ 23.6 µM); in [6] it was 0.488 µg/mL (≈ 1.47 µM); in data set [7], 0.244 µg/mL (≈ 0.736 µM); in [8], 0.976 µg/mL (≈ 2.94 µM). In [9], this compound returned an MIC of 62.5 µg/mL (≈ 189 µM). The ED100 in data set [4] (1440 h, 60-day survivors) amounted to 20 mg/kg. Moreover, the minimal effective dose in data set [4] (1440 h, 60-day survivors) turned out to be 10 mg/kg. The “Cure/Treat at Min. Curing Dose” value in [4] (60-day survivors) is on record as 1/5. For the same compound, the “ΔMST (increase in mean survival time)” value in [4] (dose 10 mg. per kg.) was 10.2. In addition, in [5] (setting [10]), the MTD was 20 mg/kg.
For the compound `CSc1ccc(Cn2ccc3c4c(N)nc(N)nc4ccc32)cc1` [Example 31], the MIC in data set [1] was found to be 0.976 µg/mL (≈ 2.91 µM); in data set [2] it was 31.3 µg/mL (≈ 93.3 µM); in data set [3] it was 0.488 µg/mL (≈ 1.45 µM); in data set [6], 0.122 µg/mL (≈ 0.364 µM); in [7] it was 0.0152 µg/mL (≈ 0.0453 µM); in data set [8] it was 0.488 µg/mL (≈ 1.45 µM). The MIC in data set [9] is 3.9 µg/mL (≈ 11.6 µM). Moreover, the ED100 in [4] (setting [11]) came out at 20 mg/kg. In addition, the minimal effective dose in data set [4] (setting [11]) amounted to 2.5 mg/kg. In addition, in data set [4] (setting [12]), the “Cure/Treat at Min. Curing Dose” value is recorded as 4/5. In data set [4] (dose 1.25 mg. per kg., alive on day 14 considered cured, no 60-day data), the “ΔMST (increase in mean survival time)” value is 6.2. The MTD in data set [5] (setting [13]) is 40 mg/kg.
Regarding `COc1ccccc1Cn1ccc2c3c(N)nc(N)nc3ccc21` [Example 32], the MIC is 0.976 µg/mL (≈ 3.06 µM) in [1]; 3.9 µg/mL (≈ 12.2 µM) in [2]; 1.95 µg/mL (≈ 6.11 µM) in [3]; 0.244 µg/mL (≈ 0.764 µM) in [6]; 0.061 µg/mL (≈ 0.191 µM) in [7]; 0.976 µg/mL (≈ 3.06 µM) in data set [8]. The compound also registered an MIC in data set [9] of 7.81 µg/mL (≈ 24.5 µM). Besides, the ED100 in data set [4] (1440 h, 60-day survivors) came out at 40 mg/kg. Further, the minimal effective dose in [4] (1440 h, 60-day survivors) came out at 10 mg/kg. Also, the “Cure/Treat at Min. Curing Dose” value in [4] (60-day survivors) was 3/5. Moreover, the “ΔMST (increase in mean survival time)” value in [4] (dose 10 mg. per kg.) stood at 10.5. Also, the MTD in [5] (setting [10]) was 160 mg/kg.

Source of the values: US4118561A, “7-(Substituted)-7H-pyrrolo[3,2-f]quinazoline-1,3-diamines” (priority 1977, dated 1978).
